Measurements as given in ChEMBL document CHEMBL1144436, “1-(Phenyl)isoquinoline carboxamides: a novel class of subtype selective inhibitors of thyrotropin-releasing hormone (TRH) receptors” (Bioorg Med Chem Lett, 2005).
Several values for one entry are separate records, joined by “and”; a condition that tells them apart may be missing. Equal values may be shown once.

Target: T1, Thyrotropin-releasing hormone receptor (Mus musculus) (UniProt P21761)
T1 sequence (whole entry): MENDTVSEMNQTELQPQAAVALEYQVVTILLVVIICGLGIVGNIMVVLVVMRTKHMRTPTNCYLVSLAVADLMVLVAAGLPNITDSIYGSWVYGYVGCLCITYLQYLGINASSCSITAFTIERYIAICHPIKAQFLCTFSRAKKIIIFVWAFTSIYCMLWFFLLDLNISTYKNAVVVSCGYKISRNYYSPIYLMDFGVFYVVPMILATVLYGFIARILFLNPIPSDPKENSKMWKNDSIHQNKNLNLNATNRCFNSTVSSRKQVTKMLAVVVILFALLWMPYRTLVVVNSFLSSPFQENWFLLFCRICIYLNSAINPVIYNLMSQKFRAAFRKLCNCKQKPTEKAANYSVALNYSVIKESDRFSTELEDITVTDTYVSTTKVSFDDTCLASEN
Assay: Displacement of [3H]MeTRH from Thyrotropin releasing hormone receptor 1 was measured; expressed as %

Row | SMILES | Competition
1 | CCC(C)NC(=O)c1cc2ccccc2c(-c2ccc([N+](=O)[O-])cc2)n1 (configuration not stated) | 16% and 40%
2 | CNC(=O)c1cc2ccccc2c(-c2ccccc2Cl)n1 | 33% and 29%
3 | CCCNC(=O)c1cc2ccccc2c(-c2ccccc2Cl)n1 | 78% and 91%
4 | CCC(C)NC(=O)c1cc2ccccc2c(-c2cccc([N+](=O)[O-])c2)n1 (configuration not stated) | 21% and 31%
5 | CCCCN(C)C(=O)c1cc2ccccc2c(-c2ccccc2Cl)n1 | 84% and 92%

More lines, now with the values ahead:

Row | Competition | SMILES
6 | 73% and 90% | CCC(C)N(C)C(=O)c1cc2ccccc2c(-c2ccccc2Cl)n1 (stereo in doubt; 10)
7 | 44% and 56% | CCC(C)N(C)C(=O)c1cc2ccccc2c(-c2ccccc2Cl)n1 (stereo in doubt)
